From ChEMBL document CHEMBL3044538, “QSAR Analysis of BABQ compounds via calculated molecular descriptors” (Med Chem Res, 2006)

Assays:
L1210 [1] = assay: Cytotoxicity against Mus musculus (mouse) L1210 cells; type: functional
Rattus norvegicus = organism: Rattus norvegicus; assay: Toxicity in Rattus norvegicus (rat); type: organism-based; settings: in vivo
B16 = assay: Antitumor activity against Mus musculus (mouse) B16 cells xenografted in rat; type: functional
L1210 [2] = assay: Antitumor activity against Mus musculus (mouse) L1210 cells xenografted in rat; type: functional

SMILES | log(1/MIC) (L1210 [1]) | log(1/LD50) (Rattus norvegicus) | log(1/MIC) (B16) | log(1/MIC) (L1210 [2])
O=C1C(Cl)=C(N2CC2)C(=O)C(Cl)=C1N1CC1 | -0.3 |  |  | 
O=C1C(Br)=C(N2CC2)C(=O)C(Br)=C1N1CC1 | 0.35 |  |  | 
O=C1C(N2CC2)=C(N2CC2)C(=O)C(N2CC2)=C1N1CC1 | 0.9 |  |  | 
O=C1C(F)=C(N2CC2)C(=O)C(F)=C1N1CC1 | -0.2 |  |  | 
CC1=C(C)C(=O)C(N2CCCC2)=CC1=O | -1.7 |  |  | 
CC1=C(N2CC2C)C(=O)C(Br)=C(N2CC2C)C1=O (centres undefined) |  | 1.59 |  | 
CCC1=C(N2CC2)C(=O)C(Br)=C(N2CC2)C1=O |  | 1.39 | 2.6 | 
CC1=C(N2C(C)C2C)C(=O)C(Br)=C(N2C(C)C2C)C1=O (centres undefined) | -0.1 | 0.63 |  | 0.69
O=C1C(N2CCCC2)=C(N2CC2)C(=O)C(N2CCCC2)=C1N1CC1 | -0.3 |  | 2.4 | 
O=C1C(F)=C(N2CC2)C(=O)C(N2CC2)=C1N1CC1 |  | 1.62 |  | 
CN(CCO)C1=C(N2CC2)C(=O)C(N(C)CCO)=C(N2CC2)C1=O | 0.09 |  |  | 
CCOC(=O)NC1=C(N2CC2C)C(=O)C(NC(=O)OCC)=C(N2CC2C)C1=O (centres undefined) | -1 | 0.69 |  | 
CC1=C(C)C(=O)C(N2CC=CC2)=CC1=O | -0.7 |  |  | 
NC(=O)OCCC1=C(N2CC2)C(=O)C(Br)=C(N2CC2)C1=O |  | 1.05 |  | 2
CC1=C(N2CC2C)C(=O)C(CCOC(N)=O)=C(N2CC2C)C1=O (centres undefined) | -0.1 |  |  | 
CC1CN1C1=CC(=O)C(N2CC2C)=CC1=O (centres undefined) |  | 1.16 |  | 
COC1=C(C)C(=O)C(N2CCCC2)=CC1=O | -1.6 |  |  | 
O=C1C=C(N2CCCC2)C(=O)C=C1N1CCCC1 | -1.6 |  |  | 
O=C1C(NCCO)=C(N2CC2)C(=O)C(NCCO)=C1N1CC1 | 0.42 |  | 3.94 | 3.39

SMILES | log(1/MIC) (L1210 [1]) | log(1/LD50) (Rattus norvegicus) | log(1/MIC) (B16) | log(1/MIC) (L1210 [2])
CNC1=C(N2CC2C)C(=O)C(NC)=C(N2CC2C)C1=O (centres undefined) | -0.3 |  | 2.33 | 2.19
CC1CN1C1=CC(=O)C(N2CC2C)=C(F)C1=O (centres undefined) | 1.49 | 1.5 |  | 
COC1=C(N2CC2C)C(=O)C=C(N2CC2C)C1=O (centres undefined) | -0.5 | 1.4 | 2.27 | 1.47
CNC1=C(N2CC2)C(=O)C(NC)=C(N2CC2)C1=O | 0.32 |  | 3.14 | 2.49
CC1=C(N2CC2)C(=O)C(CCOC(N)=O)=C(N2CC2)C1=O |  | 1.99 |  | 
CC1CN1C1=C(N2CCCC2)C(=O)C(N2CC2C)=C(N2CCCC2)C1=O (centres undefined) | -1.1 |  |  | 
CC1=C(N2CC2)C(=O)C(Br)=C(N2CC2)C1=O |  | 1.44 |  | 
CC1CN1C1=C(F)C(=O)C(N2CC2C)=C(N2CC2C)C1=O (centres undefined) |  | 1.45 |  | 
CC1CN1C1=C(Cl)C(=O)C(N2CC2C)=C(Cl)C1=O (centres undefined) | -0.6 |  |  | 1.16
CC1CN1C1=C(Br)C(=O)C(N2CC2C)=C(Br)C1=O (centres undefined) | 0.77 |  |  | 
CCOC(=O)NC1=CC(=O)C(NC(=O)OCC)=CC1=O | 0.09 |  |  | 
O=C1C=C(N2CC=CC2)C(=O)C=C1N1CC=CC1 | -1.6 |  |  | 
CC1=C(N2CC2)C(=O)C(CCO)=C(N2CC2)C1=O |  | 1.39 | 3.6 | 
CCC1=C(N2CC2)C(=O)C(C)=C(N2CC2)C1=O | -0.3 | 1.46 |  | 
O=C1C=C(N2CC2)C(=O)C=C1N1CC1 |  | 1.8 |  | 
COC1=C(N2CC2)C(=O)C(OC)=C(N2CC2)C1=O | 0.15 |  |  | 
COC(COC(N)=O)C1=C(N2CC2)C(=O)C(C)=C(N2CC2)C1=O (centres undefined) [CARBOQUONE] |  | 1.73 |  | 
CCOC(=O)NC1=C(N2CC2)C(=O)C(NC(=O)OCC)=C(N2CC2)C1=O [DIAZIQUONE] | -0.5 | 1.54 |  | 
O=C1C=C(N2CC2)C(=O)C(N2CC2)=C1N1CC1 [TRIAZIQUONE] |  | 2.66 | 3.8 | 
